Measured values published in patent US20040014702A1, “Mammalian prostaglandin H synthase-2” (priority 1992, published 2004).

Columns and labels:
colon polyp = conditions: patients with familial polyposis; cited from earlier work
griPGHS = molecular target: T1, griPGHS (Mus musculus, UniProt Q05769); conditions: E9 cells
T1 sequence (Q05769 18-604): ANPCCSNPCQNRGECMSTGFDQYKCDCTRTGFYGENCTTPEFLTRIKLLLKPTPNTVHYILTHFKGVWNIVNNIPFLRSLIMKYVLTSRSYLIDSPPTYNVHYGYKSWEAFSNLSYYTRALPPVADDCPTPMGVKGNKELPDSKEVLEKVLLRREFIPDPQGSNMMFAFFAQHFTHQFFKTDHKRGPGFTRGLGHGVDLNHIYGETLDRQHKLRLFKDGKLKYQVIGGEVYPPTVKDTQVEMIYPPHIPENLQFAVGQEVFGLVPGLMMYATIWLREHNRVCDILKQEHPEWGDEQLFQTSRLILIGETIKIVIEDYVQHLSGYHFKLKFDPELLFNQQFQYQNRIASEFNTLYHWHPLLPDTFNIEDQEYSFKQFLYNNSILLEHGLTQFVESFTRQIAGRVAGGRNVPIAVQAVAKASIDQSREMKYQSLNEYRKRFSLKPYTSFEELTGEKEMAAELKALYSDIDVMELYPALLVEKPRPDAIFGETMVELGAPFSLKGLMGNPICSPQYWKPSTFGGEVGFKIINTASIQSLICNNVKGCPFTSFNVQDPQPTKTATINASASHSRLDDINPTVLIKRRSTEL
Method: (§1) Cyclooxygenase activity was determined in the cultures by addition of media containing exogenous arachidonic acid substrate (30 AM for 15 min. at 37° C.) followed by conversion of the prostaglandin E2 product to a methyl oximate form. This derivative was then quantitated by radioimmunoassay (kit from Amersham Corp.).
Prostaglandin assays were carried out as described above. For drug studies, cells were exposed to various concentrations of drugs for 30 min in serum-free DMEM and arachidonic acid was added directly from a 25×stock in DMEM. Supernatants were harvested 15 min later. Controls consisted of no drugs and wells treated with maximal concentrations of drug vehicles (1% methanol or ethanol).
Cells were placed in serum-free medium with the drugs for 30 min prior to a 15 min exposure to arachidonic acid (added directly to the media). Synthesized PGE2 was then quantitated from the supernatants by a standard radio immunoassay.

[1] = test system: griPGHS mRNA (4.8-kb mRNA); assay: Northern blot of griPGHS (PGHS-2) mRNA in human monocytes; type: cell-based; conditions: for increased levels of griPGHS mRNA relative to control: IL-1β 10 half-maximal units
Method: (§2) Poly-A enriched RNAs (2.5 μg) from C127 cells were fractionated by formaldehyde-agarose gel electrophoresis and transferred to a membrane (Duralon, Stratagene). Hybridization was carried out as previously described by O'Banion et al., 1991, J. Virol., 65:3481-3488, using the 5′ 1.2 kb EcoRI fragment of the 4.1 kb cDNA labeled with ^32P by random priming as disclosed by Feinberg et al., 1983, Anal. Biochem., 132:6-13. The membrane was later rehybridized with a similarly labeled portion (1.6 kb 5′ end) of the 2.8 kb ovine PGHS cDNA (Oxford Biomedical Research, Inc.), and an end-labeled 40-mer complimentary to β-tubulin (Oncor). RNA molecular weight markers (Life Technologies) were visualized by ethidium bromide staining. A similar analysis was performed on total RNA (5 μg/lane) isolated from human monocytes by the guanidinium-acid-phenol extraction method of Chomczynski et al., 1987, Anal. Biochem., 162:156-159.
(§3) Adherent human monocytes isolated from healthy donors as described by Roberts et al., 1978, J. Immunol, 121:1052-1058, were suspended in M199 medium without serum at 1×10^6 cells/ml. one ml aliquots in 5 ml polypropylene tubes were incubated with loosened caps in 5% CO2 at 37° C. with occasional shaking. To derive the autoradiograph shown in FIG. 3A, monocytes were incubated for 4 hr in the presence or absence of dexamethasone (1 AM; Sigma) prior to total RNA isolation by the procedure of P. Chomczynski et al., cited above. Five μg RNA was subjected to Northern blot analysis as described by O'Banion et al., 1991, J. Biol. Chem., 34:23261-23267 with the indicated probes labeled by random priming (kit from Boehringer-Mannheim) to a specific activity >1×10^9 cpm/μg. To derive the autoradiograph shown in FIG. 3B, monocytes were treated with dexamethasone (1 μM), […] (10 half-maximal units, Collaborative Research), or both for the indicated times prior to RNA isolation. Cycloheximide (25 μM; Sigma) was added to one set of incubations 15 min prior to the addition of cytokine or hormone.

2.8-kb PGHS mRNA = assay: Northern blot of 2.8-kb PGHS (PGHS-1) mRNA in human monocytes; type: cell-based; conditions: IL-1β, dexamethasone or cycloheximide treatment
Method: as §2
Adherent human monocytes isolated from healthy donors as described by Roberts et al., 1978, J. Immunol, 121:1052-1058, were suspended in M199 medium without serum at 1×10^6 cells/ml. one ml aliquots in 5 ml polypropylene tubes were incubated with loosened caps in 5% CO2 at 37° C. with occasional shaking. […]

C127 mouse fibroblasts = assay: Inhibition of protein synthesis in C127 cell cultures; type: cell-based; conditions: C127, 0.25 h, within 15 min
Method: Exponentially growing, subconfluent (60-80%) cell monolayers (35-mm plates) were labeled in Dulbecco's modified Eagle's medium without methionine (Life Technologies) plus 200 μCi/ml Tran^35S-label (>1,000 Ci/mmol; ICN) for 15 or 30 min. In some cases, fresh fetal calf serum (10%) was present during the labeling period. Monolayers were rinsed twice with ice-cold Dulbecco's modified Eagle's medium (DMEM) with methionine prior to lysis in 200 μl of A8 buffer (9.5 M urea, 2% (w/v) Nonidet P-40, 2% (w/v) ampholines (LKB, 1.6% pH range 5-8, 04.% pH range 3.5-10), 5% (w/v) 2-mercaptoethanol). Incorporation of label into proteins was determined by trichloroacetic acid precipitation. Dexamethasone (Sigma) was freshly prepared in phosphate-buffered saline (PBS) (stock concentrations based on molar extinction coefficient of 1.5×10^4 liters/mol/cm at 250 nn) and added to 1 μM. The calcium ionophore A23187 (Calbiochem) was used at a concentration of 5 μM from a 2.5 mM stock in ethanol. Cycloheximide (Sigma) was used at a concentration of 25 μM from a 100× stock in water. This level inhibited protein synthesis by >97% within 15 min. Control cultures received appropriate amounts of solvents.

human monocytes = assay: Accumulated PGE2 in supernatant of human monocytes; type: cell-based; conditions: after 4 hr of incubation, dexamethasone 1 μM; without 122.5
Method: as §1
as §3, with “Cycloheximide (25 μM; Sigma) was added to one set of incubations 15 min prior to the addition of cytokine or hormone.” left out

[2] = test system: lung disease of cystic fibrosis; conditions: high-dose, cystic fibrosis patient population; cited from earlier work
PGHS-2 = conditions: cytokine-treated astrocytes; cited from earlier work
colon tumor = conditions: several clinical trials; cited from earlier work
human PGHS-2 = molecular target: T2, human PGHS-2 (Homo sapiens, UniProt P35354); conditions: cell lines incl. H17A5 (PGHS-1) and 4B4 (PGHS-2), 30 min drug, 15 min arachidonic acid
T2 sequence (P35354 18-604): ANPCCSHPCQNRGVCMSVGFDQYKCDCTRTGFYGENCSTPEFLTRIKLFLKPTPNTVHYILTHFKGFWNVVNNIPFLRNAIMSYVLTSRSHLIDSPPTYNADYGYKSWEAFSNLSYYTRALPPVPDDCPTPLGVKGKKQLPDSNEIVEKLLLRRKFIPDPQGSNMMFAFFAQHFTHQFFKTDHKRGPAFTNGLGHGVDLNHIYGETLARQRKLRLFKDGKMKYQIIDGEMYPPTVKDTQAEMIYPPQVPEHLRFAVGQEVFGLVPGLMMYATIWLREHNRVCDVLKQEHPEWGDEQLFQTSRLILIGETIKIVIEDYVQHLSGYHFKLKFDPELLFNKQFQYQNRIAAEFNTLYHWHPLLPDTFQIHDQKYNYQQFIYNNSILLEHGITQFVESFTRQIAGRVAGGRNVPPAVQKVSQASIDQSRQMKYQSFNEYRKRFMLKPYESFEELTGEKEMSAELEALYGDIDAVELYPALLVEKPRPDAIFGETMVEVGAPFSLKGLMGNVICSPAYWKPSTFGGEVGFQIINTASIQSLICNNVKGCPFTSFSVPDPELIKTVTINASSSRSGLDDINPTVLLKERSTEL
Method: PGHS-1 and PGHS-2 cell lines (including 4B4 and H17A5) were exposed to various concentrations of NSAID for 30 min in serum-free DMEM. Arachidonic acid was added directly from a 25×stock in DMEM and supernatants were harvested 15 min later. Controls consisted of no drug treatment and cells treated with the maximal concentrations of drug vehicles (1% methanol or ethanol). […] Cyclooxygenase activity was determined as described herein above.

## CC1=C(CC(=O)O)c2cc(F)ccc2/C1=C\c1ccc([S+](C)[O-])cc1 (stereo not drawn) [Sulindac]
Colon polyp
  effect on colon polyps: colon polyp regression

## CC(=O)Nc1ccc(O)cc1 [acetaminophen]
griPGHS; 0.2 μM-2 mM, 30 min drug then 15 min arachidonic acid
  potency against griPGHS activity (rank among four NSAIDs): the least
griPGHS; highest dose tested
  concentration not sufficient for full inhibition of griPGHS activity: > 2 mM

## IL-1β: proinflammatory cytokine, known mediator of inflammation (Collaborative Research)
[1]; 4 hr, human monocytes
  increased levels of griPGHS mRNA relative to control: 2.5 fold
[1]; 12 hr, human monocytes
  increased levels of griPGHS mRNA relative to control: 14 fold
2.8-kb PGHS mRNA
  levels of the 2.8-kb mRNA relative to β-tubulin: not significantly altered

## C[C@@H]1C[C@@H]([C@H](O)CC2CC(=O)NC(=O)C2)C(=O)[C@@H](C)C1 [cycloheximide]
[1]; cycloheximide 25 μM added 15 min before cytokine or hormone
  effect on 4.8-kb griPGHS mRNA: superinduction
C127 mouse fibroblasts
  inhibition at 25 µM: > 97%
2.8-kb PGHS mRNA
  levels of the 2.8-kb mRNA relative to β-tubulin: not significantly altered

## C[C@@H]1C[C@H]2[C@@H]3CCC4=CC(=O)C=C[C@]4(C)[C@@]3(F)[C@@H](O)C[C@]2(C)[C@@]1(O)C(=O)CO [dexamethasone]
Human monocytes
  level of accumulated PGE2 in the supernatant: 52.5 pg per 10^4 monocytes
[1]; dexamethasone 1 μM, 4 hr, human monocytes
  griPGHS mRNA levels down-regulated, normalized to β-tubulin: 5 fold

## CC(C)Cc1ccc(C(C)C(=O)O)cc1 (stereo not drawn) [ibuprofen]
[2]
  effect on lung disease: slows the progression of lung disease

## CS(=O)(=O)Nc1ccc([N+](=O)[O-])cc1OC1CCCCC1 [NS-398]
PGHS-2
  induced cyclooxygenase activity: blocked

## CC(=O)Oc1ccccc1C(=O)O [aspirin]
Colon tumor
  association of use with colon tumor outcome: decreased colon tumor growth and death
Human PGHS-2
  levels of drug required for inhibition, cells expressing PGHS-1 versus PGHS-2: different
